Test results published in the supplement of paper PMC5844555.

Experiments:
Test in all cases: 3' UTR reporter interaction score (median-centred robust z-score of log2 firefly/Renilla activity); higher = less repression of the 3' UTR reporter
Conditions in all cases: HEK293T; 48 h
BRCA2 = test system: BRCA2
In short: (§1)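 Firefly and Renilla luciferase activities were read 48 h post-transfection in HEK293T cells (10,000/well, 96-well plates). The cells had received 100 ng firefly luc2P reporter bearing the gene's 3' UTR, 20 ng Renilla pRL-TK control and 2.5 pmol miRNA mimic via DharmaFECT Duo. The interaction score, where more negative means interaction, is a per-plate robust z-score (median, median absolute deviation) of the log firefly/Renilla ratio, median-centred per miRNA and averaged over at least two independent screens.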

EZH2 = test system: EZH2
In short: as §1

FBXW7 = test system: FBXW7
In short: as §1

HRAS = test system: HRAS
In short: as §1

MYB = test system: MYB
In short: as §1

MYCN = test system: MYCN
In short: as §1

MYC = test system: MYC
In short: as §1

MYT1L = test system: MYT1L
In short: as §1

NOTCH1 = test system: NOTCH1
In short: as §1

PHF6 = test system: PHF6
In short: as §1

PHOX2B = test system: PHOX2B
In short: as §1

RB1 = test system: RB1
In short: as §1

TP53 = test system: TP53
In short: as §1

ZEB2 = test system: ZEB2
In short: as §1

UCUAGGCUGGUACUGCUGA
3' UTR reporter interaction score (BRCA2): -0.172
3' UTR reporter interaction score (EZH2): -0.385
3' UTR reporter interaction score (FBXW7): 0.217
3' UTR reporter interaction score (HRAS): -0.226
3' UTR reporter interaction score (MYB): 0.874
3' UTR reporter interaction score (MYCN): 0.628
3' UTR reporter interaction score (MYC): -0.9
3' UTR reporter interaction score (MYT1L): 0.751
3' UTR reporter interaction score (NOTCH1): -0.326
3' UTR reporter interaction score (PHF6): -0.473
3' UTR reporter interaction score (PHOX2B): -0.185
3' UTR reporter interaction score (RB1): -0.812
3' UTR reporter interaction score (TP53): 0.681
3' UTR reporter interaction score (ZEB2): 0.447

UCUAGUAAGAGUGGCAGUCG
3' UTR reporter interaction score (BRCA2): 0.0816
3' UTR reporter interaction score (EZH2): -0.108
3' UTR reporter interaction score (FBXW7): 1.23
3' UTR reporter interaction score (HRAS): -0.21
3' UTR reporter interaction score (MYB): 0.506
3' UTR reporter interaction score (MYCN): -0.229
3' UTR reporter interaction score (MYC): -0.209
3' UTR reporter interaction score (MYT1L): -0.214
3' UTR reporter interaction score (NOTCH1): 0.0614
3' UTR reporter interaction score (PHF6): 0.233
3' UTR reporter interaction score (PHOX2B): 1.81
3' UTR reporter interaction score (RB1): -1.19
3' UTR reporter interaction score (TP53): 0.771
3' UTR reporter interaction score (ZEB2): 0.627

UCUCCCAACCCUUGUACCAGUG
3' UTR reporter interaction score (BRCA2): 0.0345
3' UTR reporter interaction score (EZH2): 0.195
3' UTR reporter interaction score (FBXW7): -1.26
3' UTR reporter interaction score (HRAS): 0.137
3' UTR reporter interaction score (MYB): -6.53
3' UTR reporter interaction score (MYCN): 0.5
3' UTR reporter interaction score (MYC): 0.62
3' UTR reporter interaction score (MYT1L): 0.779
3' UTR reporter interaction score (NOTCH1): -0.369
3' UTR reporter interaction score (PHF6): 0.168
3' UTR reporter interaction score (PHOX2B): -0.32
3' UTR reporter interaction score (RB1): -0.714
3' UTR reporter interaction score (TP53): -0.706
3' UTR reporter interaction score (ZEB2): 0.808

UCUCUGGAGGGAAGCACUUUCUG
3' UTR reporter interaction score (BRCA2): 1.47
3' UTR reporter interaction score (EZH2): 1.18
3' UTR reporter interaction score (FBXW7): 0.444
3' UTR reporter interaction score (HRAS): -0.075
3' UTR reporter interaction score (MYB): -1.99
3' UTR reporter interaction score (MYCN): -0.393
3' UTR reporter interaction score (MYC): 0.317
3' UTR reporter interaction score (MYT1L): -1.64
3' UTR reporter interaction score (NOTCH1): -2.09
3' UTR reporter interaction score (PHF6): 1.92
3' UTR reporter interaction score (PHOX2B): -0.501
3' UTR reporter interaction score (RB1): -0.609
3' UTR reporter interaction score (TP53): 0.306
3' UTR reporter interaction score (ZEB2): -2.97

UCUGGCUCCGUGUCUUCACUCC
3' UTR reporter interaction score (BRCA2): 0.156
3' UTR reporter interaction score (EZH2): 0.8
3' UTR reporter interaction score (FBXW7): -0.481
3' UTR reporter interaction score (HRAS): 1.54
3' UTR reporter interaction score (MYB): -1.3
3' UTR reporter interaction score (MYCN): 1.42
3' UTR reporter interaction score (MYC): -0.629
3' UTR reporter interaction score (MYT1L): 1.3
3' UTR reporter interaction score (NOTCH1): -2.05
3' UTR reporter interaction score (PHF6): -0.567
3' UTR reporter interaction score (PHOX2B): 1.22
3' UTR reporter interaction score (RB1): 0.119
3' UTR reporter interaction score (TP53): 0.211
3' UTR reporter interaction score (ZEB2): 1.83

UCUUGGAGUAGGUCAUUGGGUGG
3' UTR reporter interaction score (BRCA2): 0.0799
3' UTR reporter interaction score (EZH2): 0.166
3' UTR reporter interaction score (FBXW7): -2.32
3' UTR reporter interaction score (HRAS): 1.18
3' UTR reporter interaction score (MYB): -0.086
3' UTR reporter interaction score (MYCN): -0.819
3' UTR reporter interaction score (MYC): 0.457
3' UTR reporter interaction score (MYT1L): -0.548
3' UTR reporter interaction score (NOTCH1): -0.846
3' UTR reporter interaction score (PHF6): 1.13
3' UTR reporter interaction score (PHOX2B): -1.26
3' UTR reporter interaction score (RB1): -0.403
3' UTR reporter interaction score (TP53): 0.12
3' UTR reporter interaction score (ZEB2): 1.13

UCUUGUGUUCUCUAGAUCAGU
3' UTR reporter interaction score (BRCA2): 0.0649
3' UTR reporter interaction score (EZH2): 0.661
3' UTR reporter interaction score (FBXW7): -0.787
3' UTR reporter interaction score (HRAS): 0.641
3' UTR reporter interaction score (MYB): 0.224
3' UTR reporter interaction score (MYCN): 0.747
3' UTR reporter interaction score (MYC): -0.281
3' UTR reporter interaction score (MYT1L): -0.612
3' UTR reporter interaction score (NOTCH1): -0.00434
3' UTR reporter interaction score (PHF6): -1.56
3' UTR reporter interaction score (PHOX2B): -1.16
3' UTR reporter interaction score (RB1): 0.632
3' UTR reporter interaction score (TP53): -0.0759
3' UTR reporter interaction score (ZEB2): 0.366

UCUUUGGUUAUCUAGCUGUAUGA
3' UTR reporter interaction score (BRCA2): -0.397
3' UTR reporter interaction score (EZH2): 0.57
3' UTR reporter interaction score (FBXW7): 0.588
3' UTR reporter interaction score (HRAS): 0.757
3' UTR reporter interaction score (MYB): -0.0519
3' UTR reporter interaction score (MYCN): -0.305
3' UTR reporter interaction score (MYC): -0.165
3' UTR reporter interaction score (MYT1L): -0.093
3' UTR reporter interaction score (NOTCH1): -0.836
3' UTR reporter interaction score (PHF6): 0.471
3' UTR reporter interaction score (PHOX2B): -0.756
3' UTR reporter interaction score (RB1): 0.127
3' UTR reporter interaction score (TP53): -1.13
3' UTR reporter interaction score (ZEB2): 0.948

UGAAACAUACACGGGAAACCUCUU
3' UTR reporter interaction score (BRCA2): 0.436
3' UTR reporter interaction score (EZH2): 0.948
3' UTR reporter interaction score (FBXW7): 1.59
3' UTR reporter interaction score (HRAS): -0.108
3' UTR reporter interaction score (MYB): -0.521
3' UTR reporter interaction score (MYCN): -2.74
3' UTR reporter interaction score (MYC): -4.26
3' UTR reporter interaction score (MYT1L): 0.0487
3' UTR reporter interaction score (NOTCH1): 2.03
3' UTR reporter interaction score (PHF6): 2.68
3' UTR reporter interaction score (PHOX2B): -0.468
3' UTR reporter interaction score (RB1): -0.893
3' UTR reporter interaction score (TP53): -0.757
3' UTR reporter interaction score (ZEB2): 0.135

UGAAGGUCUACUGUGUGCCAG
3' UTR reporter interaction score (BRCA2): -0.173
3' UTR reporter interaction score (EZH2): 0.277
3' UTR reporter interaction score (FBXW7): 0.56
3' UTR reporter interaction score (HRAS): -0.000203
3' UTR reporter interaction score (MYB): 0.992
3' UTR reporter interaction score (MYCN): 0.394
3' UTR reporter interaction score (MYC): -0.0308
3' UTR reporter interaction score (MYT1L): -2.06
3' UTR reporter interaction score (NOTCH1): -0.37
3' UTR reporter interaction score (PHF6): -1.33
3' UTR reporter interaction score (PHOX2B): 0.626
3' UTR reporter interaction score (RB1): -1.18
3' UTR reporter interaction score (TP53): 1.34
3' UTR reporter interaction score (ZEB2): 0.194
